Measured values: ChEMBL document CHEMBL4196012 (Eur J Med Chem, 2018)
Converted amounts (≈) assume the structure as drawn.

Tests used:
Assay type in all cases: functional
Escherichia coli [1] = test: Antibacterial activity against Escherichia coli ATCC […] by CLSI agar dilution method
[2] = test system: Staphylococcus epidermidis; test: Antibacterial activity against Staphylococcus epidermidis ATCC 12228 by CLSI agar dilution method
[3] = test system: Staphylococcus epidermidis; test: Antibacterial activity against methicillin-sensitive Staphylococcus epidermidis by CLSI agar dilution method
Staphylococcus aureus [4] = test: Antibacterial activity against Staphylococcus aureus ATCC 29213 by CLSI agar dilution method
Staphylococcus aureus [5] = test: Antibacterial activity against methicillin-sensitive Staphylococcus aureus by CLSI agar dilution method
Klebsiella pneumoniae [6] = test: Antibacterial activity against Klebsiella pneumoniae ATCC […] by CLSI agar dilution method
Bacillus subtilis [7] = test: Antibacterial activity against Bacillus subtilis NCDC 71 after overnight incubation by single disc method
Escherichia coli [8] = test: Antibacterial activity against Escherichia coli NCDC 134 after overnight incubation by single disc method
Pseudomonas aeruginosa [9] = test: Antibacterial activity against Pseudomonas aeruginosa NCDC105 after overnight incubation by single disc method
Paenibacillus polymyxa = test: Antibacterial activity against Paenibacillus polymyxa NCDC 64 after overnight incubation by single disc method
Staphylococcus aureus [10] = test: Antibacterial activity against Staphylococcus aureus NCDC 110 after overnight incubation by single disc method
[11] = test system: Yersinia pseudotuberculosis; test: Antibacterial activity against Yersinia pseudotuberculosis ATCC 911 after 18 to 24 hrs by double microdilution method
Enterococcus faecalis [12] = test: Antibacterial activity against Enterococcus faecalis ATCC 29212 after 18 to 24 hrs by double microdilution method
Staphylococcus aureus [13] = test: Antibacterial activity against Staphylococcus aureus ATCC 25923 after 18 to 24 hrs by double microdilution method
Bacillus cereus [14] = test: Antibacterial activity against Bacillus cereus 709 Roma after 18 to 24 hrs by double microdilution method
[15] = test system: Mycolicibacterium smegmatis; test: Antibacterial activity against Mycobacterium smegmatis ATCC 607 after 48 to 72 hrs by double microdilution method
Escherichia coli [16] = test: Antibacterial activity against Escherichia coli ATCC 35218 after 18 to 24 hrs by double microdilution method
Pseudomonas aeruginosa [17] = test: Antibacterial activity against Pseudomonas aeruginosa ATCC 10145 after 18 to 24 hrs by double microdilution method
Escherichia coli [18] = test: Antibacterial activity against Escherichia coli ATCC 25922 after 18 to 24 hrs by double microdilution method
Pseudomonas aeruginosa [19] = test: Antibacterial activity against Pseudomonas aeruginosa ATCC 43288 after 18 to 24 hrs by double microdilution method
Staphylococcus aureus [20] = test: Antibacterial activity against methicillin-sensitive Staphylococcus aureus ATCC 25923 after 18 hrs by broth microdilution method; conditions: ATCC 25923, 18 h
Staphylococcus aureus [21] = test: Antibacterial activity against methicillin-sensitive Staphylococcus aureus ATCC 6538 after 18 hrs by broth microdilution method; conditions: ATCC 6538, 18 h
Staphylococcus aureus [22] = test: Antibacterial activity against methicillin-resistant Staphylococcus aureus MIKROBANK 14001 by broth microdilution method
[23] = test system: Staphylococcus epidermidis; test: Antibacterial activity against Staphylococcus epidermidis ATCC 12228 after 18 hrs by broth microdilution method; conditions: ATCC 12228, 18 h
Bacillus subtilis [24] = test: Antibacterial activity against Bacillus subtilis ATCC 6638 after 18 hrs by broth microdilution method; conditions: ATCC 6638, 18 h
Micrococcus luteus = test: Antibacterial activity against Micrococcus luteus ATCC 10240 after 18 hrs by broth microdilution method; conditions: ATCC 10240, 18 h
Bacillus cereus [25] = test: Antibacterial activity against Bacillus cereus ATCC 10876 after 18 hrs by broth microdilution method; conditions: ATCC 10876, 18 h
Escherichia coli [26] = test: Potency index, ratio of ampicillin MIC to compound MIC for antibacterial activity against Escherichia coli ATCC 25922
[27] = test system: Yersinia pseudotuberculosis; test: Potency index, ratio of ampicillin MIC to compound MIC for antibacterial activity against Yersinia pseudotuberculosis ATCC 911
Pseudomonas aeruginosa [28] = test: Potency index, ratio of ampicillin MIC to compound MIC for antibacterial activity against Pseudomonas aeruginosa ATCC 43288
Enterococcus faecalis [29] = test: Potency index, ratio of ampicillin MIC to compound MIC for antibacterial activity against Enterococcus faecalis ATCC 29212
Staphylococcus aureus [30] = test: Potency index, ratio of ampicillin MIC to compound MIC for antibacterial activity against Staphylococcus aureus ATCC 25923
Bacillus cereus [31] = test: Potency index, ratio of ampicillin MIC to compound MIC for antibacterial activity against Bacillus cereus 709 Roma
[32] = test system: Mycolicibacterium smegmatis; test: Potency index, ratio of ampicillin MIC to compound MIC for antibacterial activity against Mycobacterium smegmatis ATCC 607
Candida albicans = test: Potency index, ratio of ampicillin MIC to compound MIC for antifungal activity against Candida albicans ATCC 60193
Saccharomyces cerevisiae = test: Potency index, ratio of ampicillin MIC to compound MIC for antifungal activity against Saccharomyces cerevisiae RSKK 251
Escherichia coli [33] = test: Antibacterial activity against Escherichia coli ATCC 8739 by agar dilution method
Klebsiella pneumoniae [34] = test: Antibacterial activity against Klebsiella pneumoniae ATCC 10031 by agar dilution method
Pseudomonas aeruginosa [35] = test: Antibacterial activity against Pseudomonas aeruginosa ATCC 9027 by agar dilution method
Bacillus subtilis [36] = test: Antibacterial activity against Bacillus subtilis PTCC 1023 by agar dilution method
Staphylococcus aureus [37] = test: Antibacterial activity against Staphylococcus aureus ATCC 6538P by agar dilution method
[38] = test system: Staphylococcus epidermidis; test: Antibacterial activity against Staphylococcus epidermidis ATCC 12228 by agar dilution method

SMILES: COc1c(N2CCNC(C)C2)c(F)cc2c(=O)c(C(=O)O)cn(C3CC3)c12 (configuration not stated) [GATIFLOXACIN]
- MIC (Escherichia coli [1]): 0.06 to 16 µg/mL (≈ 0.16 to 42.6 µM)
- MIC [2]: 0.06 to 16 µg/mL (≈ 0.16 to 42.6 µM)
- MIC [3]: 0.06 to 16 µg/mL (≈ 0.16 to 42.6 µM)
- MIC (Staphylococcus aureus [4]): 0.06 to 16 µg/mL (≈ 0.16 to 42.6 µM)
- MIC (Staphylococcus aureus [5]): 0.06 to 16 µg/mL (≈ 0.16 to 42.6 µM)
- MIC (Klebsiella pneumoniae [6]): 0.06 to 16 µg/mL (≈ 0.16 to 42.6 µM)
- MIC (Bacillus subtilis [7]): 5 to 100 µg/mL (≈ 13.3 to 266 µM)
- MIC (Escherichia coli [8]): 5 to 100 µg/mL (≈ 13.3 to 266 µM)
- MIC (Pseudomonas aeruginosa [9]): 5 to 100 µg/mL (≈ 13.3 to 266 µM)
- MIC (Paenibacillus polymyxa): 5 to 100 µg/mL (≈ 13.3 to 266 µM)
- MIC (Staphylococcus aureus [10]): 5 to 100 µg/mL (≈ 13.3 to 266 µM)

SMILES: COc1ccccc1N1CCN(Cc2nn(CN3CCN(c4cc5c(cc4F)c(=O)c(C(=O)O)cn5C4CC4)CC3)c(=O)n2Cc2ccccc2)CC1
- MIC [11]: < 0.24 µg/mL
- MIC (Enterococcus faecalis [12]): < 0.24 µg/mL
- MIC (Staphylococcus aureus [13]): < 0.24 µg/mL
- MIC (Bacillus cereus [14]): < 0.24 µg/mL
- MIC [15]: < 0.24 µg/mL
- MIC (Escherichia coli [16]): < 0.24 µg/mL
- MIC (Pseudomonas aeruginosa [17]): < 0.24 µg/mL

SMILES: CC1(C)S[C@@H]2[C@H](NC(=O)[C@H](N)c3ccccc3)C(=O)N2[C@H]1C(=O)O [AMPICILLIN]
- MIC (Escherichia coli [18]): 10 to 128 µg/mL (≈ 28.6 to 366 µM)
- MIC [11]: 10 to 128 µg/mL (≈ 28.6 to 366 µM)
- MIC (Pseudomonas aeruginosa [19]): 10 to 128 µg/mL (≈ 28.6 to 366 µM)
- MIC (Enterococcus faecalis [12]): 10 to 128 µg/mL (≈ 28.6 to 366 µM)
- MIC (Staphylococcus aureus [13]): 10 to 128 µg/mL (≈ 28.6 to 366 µM)
- MIC (Bacillus cereus [14]): 10 to 128 µg/mL (≈ 28.6 to 366 µM)
- MIC [15]: 10 to 128 µg/mL (≈ 28.6 to 366 µM)
- MIC (Escherichia coli [16]): 3.9 to 250 µg/mL (≈ 11.2 to 715 µM)
- MIC (Pseudomonas aeruginosa [17]): 3.9 to 250 µg/mL (≈ 11.2 to 715 µM)

SMILES: O=C(O)c1cn(C2CC2)c2cc(N3CCN(Cn4nc(-c5cccc(O)c5)n(Cc5ccc(Br)cc5Cl)c4=S)CC3)c(F)cc2c1=O
- MIC (Staphylococcus aureus [20]): 0.01 to 1.32 µM (≈ 0.0074 to 0.977 µg/mL)
- MIC (Staphylococcus aureus [21]): 0.01 to 1.32 µM (≈ 0.0074 to 0.977 µg/mL)
- MIC (Staphylococcus aureus [22]): 0.01 to 1.32 µM (≈ 0.0074 to 0.977 µg/mL)
- MIC [23]: 0.01 to 1.32 µM (≈ 0.0074 to 0.977 µg/mL)
- MIC (Bacillus subtilis [24]): 0.01 to 1.32 µM (≈ 0.0074 to 0.977 µg/mL)
- MIC (Micrococcus luteus): 0.01 to 1.32 µM (≈ 0.0074 to 0.977 µg/mL)
- MIC (Bacillus cereus [25]): 0.01 to 1.32 µM (≈ 0.0074 to 0.977 µg/mL)

SMILES: O=C(CN1CCN(c2cc3c(cc2F)c(=O)c(C(=O)O)cn3C2CC2)CC1)Nc1nc2ccc(Cl)cc2s1
- MIC (Bacillus subtilis [7]): 3 to 15 µg/mL (≈ 5.4 to 27 µM)
- MIC (Escherichia coli [8]): 3 to 15 µg/mL (≈ 5.4 to 27 µM)
- MIC (Pseudomonas aeruginosa [9]): 3 to 15 µg/mL (≈ 5.4 to 27 µM)
- MIC (Paenibacillus polymyxa): 3 to 15 µg/mL (≈ 5.4 to 27 µM)
- MIC (Staphylococcus aureus [10]): 3 to 15 µg/mL (≈ 5.4 to 27 µM)

SMILES: CCn1c(CN2CCN(c3ccccc3OC)CC2)nn(CN2CCN(c3cc4c(cc3F)c(=O)c(C(=O)O)cn4C3CC3)CC2)c1=S
- MIC [11]: < 0.24 µg/mL
- MIC (Enterococcus faecalis [12]): < 0.24 µg/mL
- MIC (Staphylococcus aureus [13]): < 0.24 µg/mL
- MIC (Bacillus cereus [14]): < 0.24 µg/mL
- MIC [15]: < 0.24 µg/mL
- MIC (Escherichia coli [16]): < 0.24 µg/mL
- MIC (Pseudomonas aeruginosa [17]): < 0.24 µg/mL

SMILES: O=C(O)c1cn(C2CC2)c2cc(N3CCN(Cn4nc(CN5CCSCC5)oc4=S)CC3)c(F)cc2c1=O
- Ratio (Escherichia coli [26]): >41
- Ratio [27]: >41
- Ratio (Pseudomonas aeruginosa [28]): >41
- Ratio (Enterococcus faecalis [29]): >41
- Ratio (Staphylococcus aureus [30]): >41
- Ratio (Bacillus cereus [31]): >41
- Ratio [32]: >41
- Ratio (Candida albicans): >41
- Ratio (Saccharomyces cerevisiae): >41

SMILES: O=C(O)c1cn(C2CC2)c2cc(N3CCN(c4nnc(-c5ccc([N+](=O)[O-])s5)s4)CC3)c(F)cc2c1=O
- MIC (Escherichia coli [33]): 2 to 64 µg/mL (≈ 3.69 to 118 µM)
- MIC (Klebsiella pneumoniae [34]): 2 to 64 µg/mL (≈ 3.69 to 118 µM)
- MIC (Pseudomonas aeruginosa [35]): 2 to 64 µg/mL (≈ 3.69 to 118 µM)
- MIC (Bacillus subtilis [36]): 0.008 to 0.015 µg/mL (≈ 0.0147 to 0.0276 µM)
- MIC (Staphylococcus aureus [37]): 0.008 to 0.015 µg/mL (≈ 0.0147 to 0.0276 µM)
- MIC [38]: 0.008 to 0.015 µg/mL (≈ 0.0147 to 0.0276 µM)

SMILES: COc1ccccc1N1CCN(Cc2nn(CN3CCN(c4cc5c(cc4F)c(=O)c(C(=O)O)cn5C4CC4)CC3)c(=S)n2Cc2ccccc2)CC1
- MIC [11]: < 0.24 µg/mL
- MIC (Enterococcus faecalis [12]): < 0.24 µg/mL
- MIC (Staphylococcus aureus [13]): < 0.24 µg/mL
- MIC (Bacillus cereus [14]): < 0.24 µg/mL
- MIC [15]: < 0.24 µg/mL
- MIC (Escherichia coli [16]): < 0.24 µg/mL
- MIC (Pseudomonas aeruginosa [17]): < 0.24 µg/mL

SMILES: O=C(O)c1cn(C2CC2)c2cc(N3CCN(Cn4nc(CNc5ccc(N6CCN(c7ccc(F)cc7)CC6)c(F)c5)n(-c5ccccc5)c4=S)CC3)c(F)cc2c1=O
- MIC [11]: < 0.24 µg/mL
- MIC (Enterococcus faecalis [12]): < 0.24 µg/mL
- MIC (Staphylococcus aureus [13]): < 0.24 µg/mL
- MIC (Bacillus cereus [14]): < 0.24 µg/mL
- MIC [15]: < 0.24 µg/mL
- MIC (Escherichia coli [16]): < 0.24 µg/mL
- MIC (Pseudomonas aeruginosa [17]): < 0.24 µg/mL

SMILES: O=C(CN1CCN(c2cc3c(cc2F)c(=O)c(C(=O)O)cn3C2CC2)CC1)Nc1nc2ccc([N+](=O)[O-])cc2s1
- MIC (Bacillus subtilis [7]): 3 to 125 µg/mL (≈ 5.3 to 221 µM)
- MIC (Escherichia coli [8]): 3 to 125 µg/mL (≈ 5.3 to 221 µM)
- MIC (Pseudomonas aeruginosa [9]): 3 to 125 µg/mL (≈ 5.3 to 221 µM)
- MIC (Paenibacillus polymyxa): 3 to 125 µg/mL (≈ 5.3 to 221 µM)
- MIC (Staphylococcus aureus [10]): 3 to 125 µg/mL (≈ 5.3 to 221 µM)

SMILES: O=C(O)c1cn(C2CC2)c2cc(N3CCN(Cn4nc(CNc5ccc(N6CCN(c7ccc(F)cc7)CC6)c(F)c5)n(Cc5ccccc5)c4=S)CC3)c(F)cc2c1=O
- MIC [11]: < 0.24 µg/mL
- MIC (Enterococcus faecalis [12]): < 0.24 µg/mL
- MIC (Staphylococcus aureus [13]): < 0.24 µg/mL
- MIC (Bacillus cereus [14]): < 0.24 µg/mL
- MIC [15]: < 0.24 µg/mL
- MIC (Escherichia coli [16]): < 0.24 µg/mL
- MIC (Pseudomonas aeruginosa [17]): < 0.24 µg/mL
